Results reported in ChEMBL document CHEMBL3259521, “Design, synthesis, and SAR of embelin analogues as the inhibitors of PAI-1 (plasminogen activator inhibitor-1)” (Bioorg Med Chem Lett, 2014).
Calls of active or inactive are those of the source. No cut-off for these calls is given here.

Assays:
Homo sapiens [1] = organism: Homo sapiens; test: Ratio of embelin IC50 to compound IC50 for hexa-His-tagged PAI-1 N152H/K156T/Q321L/M356I mutant (unknown origin) expressed in Escherichia coli BL21(DE3)
[2] = Inhibition of hexa-His-tagged PAI-1 N152H/K156T/Q321L/M356I mutant (unknown origin) expressed in Escherichia coli BL21(DE3) after 10 mins by uPA-based assay; set-up: species or system Homo sapiens
Homo sapiens [3] = organism: Homo sapiens; test: Inhibition of hexa-His-tagged PAI-1 N152H/K156T/Q321L/M356I mutant (unknown origin) expressed in Escherichia coli BL21(DE3) at 100 uM after 10 mins by uPA-based assay

Row | SMILES | Ratio IC50 (Homo sapiens [1]) | IC50 [2] [µM] | inhibition (Homo sapiens [3])
1 | CCCCCCCCC1=C(O)C(=O)C(CCCCCCCC)=C(O)C1=O | 5 | 0.89 | –
2 | CCCCCCCC1=C(O)C(=O)C=C(O)C1=O | – | 3.87 | –
3 | CCCCCCC1=C(O)C(=O)C=C(O)C1=O | – | 4.18 | –
4 | CCCCCCCCCC1=C(O)C(=O)C=C(O)C1=O | – | 1.78 | –
5 | CCCCCCCCCC1=C(O)C(=O)C(Cc2ccccc2)=C(O)C1=O | 6.5 | 0.77 | –
6 | CCCCCCCCC1=C(O)C(=O)C=C(O)C1=O | – | 1.87 | –
7 | CCCCCCCCCCCC1=C(OC)C(=O)C=C(OC)C1=O | – | – | inactive
8 | C=CCC1=C(O)C(=O)C(CCCCCCCCC)=C(O)C1=O | 6.5 | 0.75 | –
9 | CCCCCCCCCCCC1=C(O)C(=O)C=C(O)C1=O [EMBELIN] | – | 4.94 | –
10 | CCCCCCCCCCCC1=C(O)C(=O)C=C(OC)C1=O [5-O-METHYLEMBELIN] | – | 90.2 | –
11 | CCCCCC1=C(O)C(=O)C=C(O)C1=O | – | 4.56 | –

The next lines start with the values.

Row | Ratio IC50 (Homo sapiens [1]) | IC50 [2] [µM] | inhibition (Homo sapiens [3]) | SMILES
12 | 10 | 0.51 | – | CCCCCCCC1=C(O)C(=O)C(CCCCCCC)=C(O)C1=O
13 | 13 | 0.38 | – | CCCCCCCCCC1=C(O)C(=O)C(CCC)=C(O)C1=O
14 | – | 5.68 | – | CCCC1=C(O)C(=O)C(CCC)=C(O)C1=O
15 | 27 | 0.18 | – | CCCCCCCCCC1=C(O)C(=O)C(CCCC)=C(O)C1=O
16 | – | 7.11 | – | CCCCC1=C(O)C(=O)C(CCCC)=C(O)C1=O
17 | 5 | 0.92 | – | CCCCCC1=C(O)C(=O)C(CCCCC)=C(O)C1=O
18 | 9 | 0.58 | – | CCCCCCC1=C(O)C(=O)C(CCCCCC)=C(O)C1=O
19 | 5 | 0.95 | – | CCCCCCCCCC1=C(O)C(=O)C(CCCCCCC)=C(O)C1=O
20 | 8 | 0.63 | – | CCCCCCCCCC1=C(O)C(=O)C(CCCCC)=C(O)C1=O
